A value given as a limit tells only on which side of the number the result lay.

Aurora B/INCENP, sequence (Q96GD4 whole entry): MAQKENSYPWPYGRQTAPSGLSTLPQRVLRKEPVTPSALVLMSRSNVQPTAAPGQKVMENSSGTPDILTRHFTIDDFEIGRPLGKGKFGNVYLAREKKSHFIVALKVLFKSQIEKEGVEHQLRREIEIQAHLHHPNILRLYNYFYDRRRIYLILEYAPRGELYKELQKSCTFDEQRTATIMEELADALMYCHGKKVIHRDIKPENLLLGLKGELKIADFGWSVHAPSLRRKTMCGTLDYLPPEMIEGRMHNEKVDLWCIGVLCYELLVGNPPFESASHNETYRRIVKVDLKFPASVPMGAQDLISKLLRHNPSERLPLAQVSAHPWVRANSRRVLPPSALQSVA
Aurora B/INCENP, sequence (Q9NQS7 whole entry partner): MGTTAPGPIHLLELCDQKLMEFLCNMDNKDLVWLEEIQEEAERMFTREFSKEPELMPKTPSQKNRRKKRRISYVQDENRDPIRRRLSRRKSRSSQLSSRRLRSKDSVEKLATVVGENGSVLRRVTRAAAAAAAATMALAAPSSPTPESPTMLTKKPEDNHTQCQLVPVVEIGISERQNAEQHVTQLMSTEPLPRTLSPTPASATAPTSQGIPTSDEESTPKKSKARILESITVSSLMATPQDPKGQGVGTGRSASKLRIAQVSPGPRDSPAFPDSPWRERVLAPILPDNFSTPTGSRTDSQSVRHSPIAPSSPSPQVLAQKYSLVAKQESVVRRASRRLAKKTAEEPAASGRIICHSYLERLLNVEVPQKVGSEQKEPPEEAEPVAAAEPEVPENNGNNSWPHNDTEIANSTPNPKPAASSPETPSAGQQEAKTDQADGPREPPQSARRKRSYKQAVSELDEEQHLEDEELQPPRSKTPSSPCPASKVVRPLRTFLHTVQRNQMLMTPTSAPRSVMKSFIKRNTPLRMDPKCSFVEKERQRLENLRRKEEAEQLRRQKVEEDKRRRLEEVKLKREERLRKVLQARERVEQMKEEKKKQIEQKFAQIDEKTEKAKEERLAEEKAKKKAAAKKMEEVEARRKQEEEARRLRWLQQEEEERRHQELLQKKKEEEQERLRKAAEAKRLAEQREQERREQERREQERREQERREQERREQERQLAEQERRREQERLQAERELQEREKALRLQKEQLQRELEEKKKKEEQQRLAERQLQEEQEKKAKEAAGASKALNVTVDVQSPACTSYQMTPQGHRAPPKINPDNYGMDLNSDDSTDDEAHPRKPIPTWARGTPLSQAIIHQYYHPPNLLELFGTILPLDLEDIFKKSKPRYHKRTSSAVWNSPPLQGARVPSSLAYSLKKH

The assay addresses Aurora B/INCENP (Homo sapiens, UniProt Q96GD4). Kind of assay: Inhibition of AIK: Aurora B/INCENP Direct Fluorescence Polarization (IMAP) kinase assay. In kind it is biochemical. The following applies: IC50 against AIK B; 10 uM ATP, 0.8 nM Aurora B/INCENP, 45 min at room temperature, FP readout; values given as bins. The method, then:
Detection of the reaction product is performed by addition of Progressive IMAP binding reagent (Molecular Devices). Reaction product may be determined quantitatively by FP using an Analyst HT plate reader (Molecular Devices) with an excitation wavelength at 485 nm and emission at 530 nm and using a Fluorescein 505 dichroic mirror.
The assay reaction may be initiated as follows: 2 ul of (3x) 300 nM Fl-Peptide/30 uM ATP was added to each well of the plate, followed by the addition of 2 ul of (3x) inhibitor (2 fold serial dilutions for 11 data points for each inhibitor) containing 15% DMSO. Two microliters of (3x) 2.4 nM AuroraB/INCENP solution may be added to initiate the reaction (final enzyme concentration was 0.8 nM for Aurora B/INCENP). The reaction mixture may then be incubated at room temperature for 45 min, and quenched and developed by addition of 20 ul of 1 to 400 diluted Progressive IMAP binding reagent in 1x proprietary Progressive IMAP binding buffer A. Fluorescence polarization readings of the resulting reaction mixtures may be measured after a 60-minute incubation at room temperature.
IC50 values may be calculated by non-linear curve fitting of the compound concentrations and fluorescent polarization values to the standard IC50 equation.
(In general: Fluorescence polarisation rises when a labelled molecule tumbles more slowly, as on binding a larger partner.)
The term IC50 denotes the midpoint of a concentration-inhibition curve. A lower IC50 goes with greater potency. For the compound `CCS(=O)(=O)c1cccc(-c2cc(C(=O)O)cc3[nH]c4ncc(C)cc4c23)c1` [Compound 140, 5-(3-Ethanesulfonyl-phenyl)-3-methyl-9H-pyrido[2,3-b]indole-7-carboxylic acid], the IC50 is ≤ 5 nM. On to `CCS(=O)(=O)c1cccc(-c2ccc(OCC3CCNCC3)c3[nH]c4ncc(C)cc4c23)c1` [Compound 185, 5-(3-(ethylsulfonyl)phenyl)-3-methyl-8-(piperidin-4-ylmethoxy)-9H-pyrido[2,3-b]indole], for which the half-inhibitory concentration (IC50) is ≤ 5 nM. For `CNS(=O)(=O)c1cccc(-c2ccc(C)c3[nH]c4ncc(C)cc4c23)c1` [Compound 15, 3-(3,8-dimethyl-9H-pyrido[2,3-b]indol-5-yl)-N-methylbenzenesulfonamide], the IC50 was ≤ 5 nM.

`CCS(=O)(=O)c1cccc(-c2cc(C(=O)NC[C@H](C)O)c(C)c3[nH]c4ncc(C)cc4c23)c1` [Compound 100, (S)-5-(3-(ethylsulfonyl)phenyl)-N-(2-hydroxypropyl)-3,8-dimethyl-9H-pyrido[2,3-b]indole-7-carboxamide]: the IC50 is ≤ 5 nM.

As for `CCS(=O)(=O)c1cccc(-c2cc(C(=O)NCCO)c(C)c3[nH]c4ncc(C)cc4c23)c1` [Compound 101, 5-(3-(ethylsulfonyl)phenyl)-N-(2-hydroxyethyl)-3,8-dimethyl-9H-pyrido[2,3-b]indole-7-carboxamide], the IC50 was ≤ 5 nM.

Regarding `CCS(=O)(=O)c1cccc(-c2cnc(OCC3CCN(C)CC3)c3[nH]c4ncc(Cl)cc4c23)c1` [Compound 72, 3-Chloro-5-(3-ethanesulfonyl-phenyl)-8-(1-methyl-piperidin-4-ylmethoxy)-9H-dipyrido[2,3-b;4',3'-d]pyrrole], the IC50 was ≤ 5 nM. Consider `Cc1cnc2[nH]c3c(OCCCN(C)C)ccc(-c4cccc(S(=O)(=O)C5CC5)c4)c3c2c1` [Compound 194, 3-(5-(3-(cyclopropylsulfonyl)phenyl)-3-methyl-9H-pyrido[2,3-b]indol-8-yloxy)-N,N-dimethylpropan-1-amine], for which the IC50 was ≤ 5 nM. Consider `CCS(=O)(=O)c1cccc(-c2cnc(Cl)c3[nH]c4ncc(C)cc4c23)c1` [Compound 40, 8-chloro-5-[3-(ethylsulfonyl)phenyl]-3-methyl-9H-pyrido[4',3':4,5]pyrrolo[2,3-b]pyridine], for which the IC50 is ≤ 5 nM. In the case of `CCS(=O)(=O)c1cccc(-c2ccc(OC)c3[nH]c4ncc(C)cc4c23)c1` [Compound 157], the IC50 was ≤ 5 nM.

For `CCS(=O)(=O)c1cccc(-c2ccc(OCCCN(C)C)c3[nH]c4ncc(C)cc4c23)c1` [Compound 206, 3-(5-(3-(ethylsulfonyl)phenyl)-3-methyl-9H-pyrido[2,3-b]indol-8-yloxy)-N,N-dimethylpropan-1-amine], the IC50 was ≤ 5 nM. As for `CCS(=O)(=O)c1cccc(-c2ccc(OCCCO)c3[nH]c4ncc(C)cc4c23)c1` [Compound 217, 3-(5-(3-(ethylsulfonyl)phenyl)-3-methyl-9H-pyrido[2,3-b]indol-8-yloxy)propan-1-ol], the IC50 was ≤ 5 nM. For `Cc1cnc2[nH]c3c(OC[C@@H](O)CN(C)C)ccc(-c4cccc(S(=O)(=O)C5CC5)c4)c3c2c1` [Compound 313, (S)-1-(5-(3-(cyclopropylsulfonyl)phenyl)-3-methyl-9H-pyrido[2,3-b]indol-8-yloxy)-3-(dimethylamino)propan-2-ol] the value was ≤ 5 nM.

On to `CCS(=O)(=O)c1cccc(-c2ccc(OCCCN(C)C)c3[nH]c4ncc(Cl)cc4c23)c1` [Compound 220, 3-(3-chloro-5-(3-(ethylsulfonyl)phenyl)-9H-pyrido[2,3-b]indol-8-yloxy)-N,N-dimethylpropan-1-amine], for which the concentration for half-maximal inhibition (IC50) was ≤ 5 nM. On to `CCS(=O)(=O)c1cccc(-c2cnc(OC[C@H](C)O)c3[nH]c4ncc(C)cc4c23)c1` [Compound 62, (S)-1-[5-(3-Ethanesulfonyl-phenyl)-3-methyl-9H-dipyrido[2,3-b;4',3'-d]pyrrol-8-yloxy]-propan-2-ol], for which the IC50 was ≤ 5 nM. As for `CCS(=O)(=O)c1cccc(-c2ccc(O)c3[nH]c4ncc(C)cc4c23)c1` [Compound 158, 5-(3-(ethylsulfonyl)phenyl)-3-methyl-9H-pyrido[2,3-b]indol-8-ol], the IC50 was ≤ 5 nM.

For the compound `CCS(=O)(=O)c1cccc(-c2cc(C(N)=O)cc3[nH]c4ncc(C)cc4c23)c1` [Compound 128, 5-(3-Ethanesulfonyl-phenyl)-3-methyl-9H-pyrido[2,3-b]indole-7-carboxylic acid amide], the concentration for half-maximal inhibition (IC50) was ≤ 5 nM. In the case of `CCN(CCO)CCCOc1ccc(-c2cccc(S(=O)(=O)C3CC3)c2)c2c1[nH]c1ncc(C)cc12` [Compound 270, 2-((3-(5-(3-(cyclopropylsulfonyl)phenyl)-3-methyl-9H-pyrido[2,3-b]indol-8-yloxy)propyl)(ethyl)amino)ethanol], the IC50 was ≤ 5 nM. Next, `CCS(=O)(=O)c1cccc(-c2ccc(OC[C@H](O)CO)c3[nH]c4ncc(C)cc4c23)c1` [Compound 231, (R)-3-(5-(3-(ethylsulfonyl)phenyl)-3-methyl-9H-pyrido[2,3-b]indol-8-yloxy)propane-1,2-diol]: ≤ 5 nM; `CCNS(=O)(=O)c1cccc(-c2ccc(OC)c3[nH]c4ncc(C)cc4c23)c1` [Compound 170, N-ethyl-3-(8-methoxy-3-methyl-9H-pyrido[2,3-b]indol-5-yl)benzenesulfonamide]: ≤ 5 nM.

For `CCN(CCCOc1ccc(-c2cccc(S(=O)(=O)C3CC3)c2)c2c1[nH]c1ncc(Cl)cc12)CCOP(=O)(O)O` [Compound 299, 2-((3-(3-chloro-5-(3-(cyclopropylsulfonyl)phenyl)-9H-pyrido[2,3-b]indol-8-yloxy)propyl)(ethyl)ammo)ethyl dihydrogen phosphate], the IC50 was ≤ 5 nM. For `CCS(=O)(=O)c1cccc(-c2ccc(OCC3CCNCC3)c3[nH]c4ncc(Cl)cc4c23)c1` [Compound 201, 3-chloro-5-(3-(ethylsulfonyl)phenyl)-8-(piperidin-4-ylmethoxy)-9H-pyrido[2,3-b]indole], the IC50 is ≤ 5 nM. As for `CCS(=O)(=O)c1cccc(-c2cnc(OCCCO)c3[nH]c4ncc(C)cc4c23)c1` [Compound 55, 3-[5-(3-Ethanesulfonyl-phenyl)-3-methyl-9H-dipyrido[2,3-b;4',3'-d]pyrrol-8-yloxy]-propan-1-ol], the IC50 is ≤ 5 nM. Turning to `CCS(=O)(=O)c1cccc(-c2ccc(OCC3CCN(C)CC3)c3[nH]c4ncc(Cl)cc4c23)c1` [Compound 200, 3-chloro-5-(3-(ethylsulfonyl)phenyl)-8-((1-methylpiperidin-4-yl)methoxy)-9H-pyrido[2,3-b]indole], the IC50 was ≤ 5 nM.

The values are drawn from patent publication EP2145877A2, “Aurora Kinase inhibitors” (Takeda Pharmaceutical Company Limited, priority 2006, dated 2008).
